# Source: PMC8355244, “A fragment-based approach identifies an allosteric pocket that impacts malate dehydrogenase activity” (Communications Biology, 2021)
# Several values for one entry are separate records, joined by “and”; a condition that tells them apart may be missing. Equal values may be shown once. Read-outs that look alike come from different tables or passages of the source.
# Assays:
# WT PfMDH [1] = molecular target: T1, WT PfMDH (Plasmodium falciparum, UniProt Q6VVP7); assay: Microscale thermophoresis (MST) binding to fluorescently labeled PfMDH
# T1 construct: The full-length WT PfMDH gene was cloned into pETM-13; made in house; host or cells: E. coli Rosetta 2 (DE3) pLysS
# Method: A Nanotemper MonolithNT.115 instrument (Nano-temper Technologies, GmbH) was used to quantify ligand/protein interactions. Purified PfMDH was labeled using the Red-NHS Monolith Protein Labeling Kit according to the manufacturer’s protocol. All reactions were performed in 100 mM Na-phosphate buffer pH 7.4, 400 mM NaCl, 0.05% Tween-20 in standard capillaries (Nanotemper Technologies GmbH). The ligand was 2× fold diluted starting from 4 mM as the highest concentration; the final protein concentration was 50 nM. All samples were incubated with compounds for about 1 h at room temperature followed by centrifugation at 18,000 rpm (Eppendorf Centrifuge 5415R) before loading into capillaries. Measurement was performed in triplicate at 40% LED intensity and 40% MST power. The Kd model was employed to determine the binding constant using the software MO.Affinity Analysis v2.3 while data collection was performed with MO.Control 2 (Nano-temper Technologies, GmbH).
# PfMDH [2] = molecular target: T2, PfMDH (Plasmodium falciparum, UniProt Q6VVP7); assay: Thermal shift assay (TSA); assay type: binding; settings: for TSA melting curve raw signal: triplicate columns; for TSA melting curve raw fluorescence signal: three replicate columns
# T2 construct: The full-length WT PfMDH gene was cloned into pETM-13; made in house; host or cells: E. coli Rosetta 2 (DE3) pLysS
# Method: The TSA experiment was conducted in a BioRad CSX 96 (Biorad). Each reaction consisted of 1 mM of compound (100 mM stock in 100% (v/v) DMSO) and 10 μM PfMDH in 100 mM Na–phosphate buffer pH 7.4, 400 mM NaCl, and 10× Sypro Orange (Invitrogen) for a total volume of 100 μl. Control experiments were performed with 1% (v/v) DMSO. Inflection points were determined using BioRad CFX96™ control software. Generally, a temperature increase of over 1 °C is interpreted as a result of the stabilization of the protein-ligand interaction. On the contrary, a negative shift is considered a destabilization caused by the fragment.
# WT PfMDH [3] = molecular target: T1, WT PfMDH; assay: STD-NMR fragment screening, wild type; assay type: binding; settings: 10 μM protein, 100-fold molar excess
# Method: (§1) NMR spectra were acquired on Bruker Avance III (600 MHz) spectrometer at 300 K, equipped with a triple resonance cryoprobe head and an automated SampleJet sample changer. The samples for STD experiments were prepared in 100 mM Na-phosphate pH 7.4, 400 mM NaCl and spectra were recorded in water with 1:100-fold excess of the fragment (dissolved in DMSO at 100 mM) in an additional 10% (v/v) D2O to provide a lock signal. Final protein and ligand concentrations were 10 μM and 1 mM, respectively. Selective saturation of the protein resonances (on resonance spectrum) was performed by irradiating at 0.5 ppm using a series of Eburp2.1000-shaped 90 pulses (50 ms, 1 ms delay between pulses) for a total saturation time of 2.0 s. For the reference spectrum (off-resonance), the samples were irradiated at −10 ppm. On- and off-resonance scans were subtracted using phase cycling. The fragment library screening was performed by testing 300 mixtures containing five fragments each initially. Mixtures that yielded positive STD signals were selected and deconvolved, i.e., fragments that formed “active” mixtures were tested separately. Spectra were analyzed with TopSpin® software, 4.0
# V190W PfMDH = molecular target: T3, V190W PfMDH (Plasmodium falciparum, UniProt Q6VVP7, V190W); assay: STD-NMR fragment screening, dimeric mutant; assay type: binding; settings: 10 μM protein, 1 mM fragment
# T3 construct: made in house; host or cells: E. coli (stated expressly only for the WT construct)
# Method: as §1
# PfMDH [4] = molecular target: T2, PfMDH; assay: Kinetics experiment with varying L-malate, substrate inhibition model; assay type: biochemical
# MDH = settings: cited from earlier work
# [5] = 3 h exposure to 5 μM; cited from earlier work
# T2 sequence (Q6VVP7 entry or part of it): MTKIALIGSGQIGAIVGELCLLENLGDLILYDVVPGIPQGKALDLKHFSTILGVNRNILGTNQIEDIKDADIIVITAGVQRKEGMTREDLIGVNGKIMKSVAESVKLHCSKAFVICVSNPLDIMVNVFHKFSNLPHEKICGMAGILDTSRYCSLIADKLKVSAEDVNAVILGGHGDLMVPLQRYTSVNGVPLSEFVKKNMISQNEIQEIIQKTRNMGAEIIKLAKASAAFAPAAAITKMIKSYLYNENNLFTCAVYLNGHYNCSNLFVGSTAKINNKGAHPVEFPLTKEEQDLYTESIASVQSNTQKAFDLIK
# T1 sequence (Q6VVP7 entry or part of it): as above
# T3 sequence (Q6VVP7 whole entry V190W, the tested form may be a part): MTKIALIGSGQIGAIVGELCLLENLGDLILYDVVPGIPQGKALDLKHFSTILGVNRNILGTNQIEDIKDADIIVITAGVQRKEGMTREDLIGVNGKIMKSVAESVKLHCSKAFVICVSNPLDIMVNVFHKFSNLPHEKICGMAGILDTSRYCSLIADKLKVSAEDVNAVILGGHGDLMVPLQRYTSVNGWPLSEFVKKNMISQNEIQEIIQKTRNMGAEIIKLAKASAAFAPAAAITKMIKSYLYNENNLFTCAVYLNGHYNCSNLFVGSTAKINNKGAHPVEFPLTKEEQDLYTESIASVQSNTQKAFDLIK
smiles,measurement,setting,value
"Nc1nc(-c2ccc(F)c(F)c2)cs1 [4DT, 4-(3,4-difluorophenyl) thiazol-2-amine]",Kd,"WT PfMDH [1]; MST report, target 50 nM, 25.1°C, n 3, Kd Confidence ± 1.7444E-05, read-out: Kd (MST report)",99 µM
same,Kd,"WT PfMDH [1]; MST, 50 nM labeled WT PfMDH, ligand 240 nM to 4 mM, read-out: Kd",99 ± 1.7 µM
same,ΔTm at 1000 µM,PfMDH [2]; 1 mM compound vs DMSO control,-2 ± 0.17 °C
same,Tm,"PfMDH [2]; 1 mM compound, 10 μM PfMDH, DMSO control Tm 58",56 ± 0.17 °C
same,TSA melting curve raw signal,PfMDH [2]; Temperature 25,3306.061 and 3342.86 and 3324.801
same,TSA melting curve raw signal,PfMDH [2]; Temperature 28.5,3333.659 and 3382.548 and 3355.546
same,TSA melting curve raw signal,PfMDH [2]; Temperature 29,3336.65 and 3387.196 and 3360.105
same,TSA melting curve raw signal,PfMDH [2]; Temperature 29.5,3339.189 and 3391.098 and 3364.015
same,TSA melting curve raw signal,PfMDH [2]; Temperature 30,3341.416 and 3393.698 and 3368
same,TSA melting curve raw signal,PfMDH [2]; Temperature 30.5,3342.684 and 3395.106 and 3371.797
same,TSA melting curve raw signal,PfMDH [2]; Temperature 31,3343.918 and 3395.986 and 3375.352
same,TSA melting curve raw signal,PfMDH [2]; Temperature 31.5,3345.279 and 3397.252 and 3379.023
same,TSA melting curve raw signal,PfMDH [2]; Temperature 32,3347.139 and 3398.82 and 3383.605
same,TSA melting curve raw signal,PfMDH [2]; Temperature 32.5,3348.867 and 3401.838 and 3388.573
same,TSA melting curve raw signal,PfMDH [2]; Temperature 33,3351.566 and 3406.371 and 3394.323
same,TSA melting curve raw signal,PfMDH [2]; Temperature 33.5,3355.148 and 3412.286 and 3401.055
same,TSA melting curve raw signal,PfMDH [2]; Temperature 34,3359.354 and 3419.075 and 3408.698
same,TSA melting curve raw signal,PfMDH [2]; Temperature 34.5,3364.345 and 3426.84 and 3417.169
same,TSA melting curve raw signal,PfMDH [2]; Temperature 35,3370.925 and 3434.905 and 3426.749
same,TSA melting curve raw signal,PfMDH [2]; Temperature 35.5,3378.766 and 3443.449 and 3437.428
same,TSA melting curve raw signal,PfMDH [2]; Temperature 36,3388.116 and 3452.416 and 3449.193
same,TSA melting curve raw signal,PfMDH [2]; Temperature 36.5,3399.139 and 3461.927 and 3462.335
same,TSA melting curve raw signal,PfMDH [2]; Temperature 37,3411.581 and 3472.191 and 3477.03
same,TSA melting curve raw signal,PfMDH [2]; Temperature 37.5,3425.633 and 3483.607 and 3493.418
same,TSA melting curve raw signal,PfMDH [2]; Temperature 38,3441.177 and 3496.044 and 3511.6
same,TSA melting curve raw signal,PfMDH [2]; Temperature 38.5,3458.245 and 3509.831 and 3531.909
same,TSA melting curve raw signal,PfMDH [2]; Temperature 39,3477.439 and 3525.778 and 3554.709
same,TSA melting curve raw signal,PfMDH [2]; Temperature 39.5,3498.925 and 3543.752 and 3579.893
same,TSA melting curve raw signal,PfMDH [2]; Temperature 40,3522.761 and 3563.858 and 3607.657
same,TSA melting curve raw signal,PfMDH [2]; Temperature 40.5,3549.068 and 3586.405 and 3638.198
same,TSA melting curve raw signal,PfMDH [2]; Temperature 41,3578.181 and 3611.326 and 3671.73
same,TSA melting curve raw signal,PfMDH [2]; Temperature 41.5,3609.957 and 3638.555 and 3708.036
same,TSA melting curve raw signal,PfMDH [2]; Temperature 42,3645.082 and 3668.877 and 3747.413
same,TSA melting curve raw signal,PfMDH [2]; Temperature 42.5,3683.644 and 3702.365 and 3790.395
same,TSA melting curve raw signal,PfMDH [2]; Temperature 43,3726.411 and 3739.617 and 3837.462
same,TSA melting curve raw signal,PfMDH [2]; Temperature 43.5,3773.558 and 3781.332 and 3888.754
same,TSA melting curve raw signal,PfMDH [2]; Temperature 44,3825.615 and 3827.686 and 3944.903
same,TSA melting curve raw signal,PfMDH [2]; Temperature 44.5,3882.684
same,TSA melting curve raw fluorescence signal,PfMDH [2]; Temperature 73.5,7306.372 and 7609.03 and 7435.601
same,TSA melting curve raw fluorescence signal,PfMDH [2]; Temperature 74,7252.808 and 7555.848 and 7383.062
same,TSA melting curve raw fluorescence signal,PfMDH [2]; Temperature 74.5,7199.861 and 7502.703 and 7330.716
same,TSA melting curve raw fluorescence signal,PfMDH [2]; Temperature 75,7147.275 and 7449.479 and 7278.535
same,TSA melting curve raw fluorescence signal,PfMDH [2]; Temperature 75.5,7094.934 and 7396.013 and 7226.157
same,TSA melting curve raw fluorescence signal,PfMDH [2]; Temperature 76,7042.814 and 7342.543 and 7173.967
same,TSA melting curve raw fluorescence signal,PfMDH [2]; Temperature 76.5,6991.326 and 7288.895 and 7121.791
same,TSA melting curve raw fluorescence signal,PfMDH [2]; Temperature 77,6939.998 and 7235.077 and 7069.532
same,TSA melting curve raw fluorescence signal,PfMDH [2]; Temperature 77.5,6888.609 and 7181.445 and 7017.268
same,TSA melting curve raw fluorescence signal,PfMDH [2]; Temperature 78,6837.679 and 7128.499 and 6965.286
same,TSA melting curve raw fluorescence signal,PfMDH [2]; Temperature 78.5,6786.806 and 7075.655 and 6913.558
same,TSA melting curve raw fluorescence signal,PfMDH [2]; Temperature 79,6735.738 and 7023.249 and 6861.909
same,TSA melting curve raw fluorescence signal,PfMDH [2]; Temperature 79.5,6684.496 and 6971.241 and 6810.337
same,TSA melting curve raw fluorescence signal,PfMDH [2]; Temperature 80,6633.443 and 6919.222 and 6759.175
same,TSA melting curve raw fluorescence signal,PfMDH [2]; Temperature 80.5,6581.916 and 6866.533 and 6708.294
same,TSA melting curve raw fluorescence signal,PfMDH [2]; Temperature 81,6530.578 and 6813.96 and 6657.201
same,TSA melting curve raw fluorescence signal,PfMDH [2]; Temperature 81.5,6479.57 and 6761.335 and 6606.519
same,TSA melting curve raw fluorescence signal,PfMDH [2]; Temperature 82,6428.761 and 6708.745 and 6556.435
same,TSA melting curve raw fluorescence signal,PfMDH [2]; Temperature 82.5,6378.066 and 6656.727 and 6506.333
same,TSA melting curve raw fluorescence signal,PfMDH [2]; Temperature 83,6327.701 and 6605.378 and 6456.007
same,TSA melting curve raw fluorescence signal,PfMDH [2]; Temperature 83.5,6277.373 and 6554.37 and 6405.813
same,TSA melting curve raw fluorescence signal,PfMDH [2]; Temperature 84,6227.075 and 6503.782 and 6355.543
same,TSA melting curve raw fluorescence signal,PfMDH [2]; Temperature 84.5,6177.058 and 6453.083 and 6304.863
same,TSA melting curve raw fluorescence signal,PfMDH [2]; Temperature 85,6127.333 and 6402.172 and 6253.833
same,TSA melting curve raw fluorescence signal,PfMDH [2]; Temperature 85.5,6077.95 and 6351.179 and 6202.991
same,TSA melting curve raw fluorescence signal,PfMDH [2]; Temperature 86,6029.103 and 6299.937 and 6152.723
same,TSA melting curve raw fluorescence signal,PfMDH [2]; Temperature 86.5,5980.562 and 6248.441 and 6102.328
same,TSA melting curve raw fluorescence signal,PfMDH [2]; Temperature 87,5932.235 and 6197.461 and 6052.601
same,TSA melting curve raw fluorescence signal,PfMDH [2]; Temperature 87.5,5883.708 and 6146.127 and 6003.152
same,TSA melting curve raw fluorescence signal,PfMDH [2]; Temperature 88,5834.776 and 6094.257 and 5953.457
same,TSA melting curve raw fluorescence signal,PfMDH [2]; Temperature 88.5,5785.039 and 6042.085 and 5903.221
same,TSA melting curve raw fluorescence signal,PfMDH [2]; Temperature 89,5734.759 and 5989.63 and 5852.78
same,TSA melting curve raw fluorescence signal,PfMDH [2]; Temperature 89.5,5684.264 and 5936.616 and 5801.633
same,TSA melting curve raw fluorescence signal,PfMDH [2]; Temperature 90,5633.721
same,STD-NMR binding,WT PfMDH [3],could not be seen to bind
same,STD-NMR binding,V190W PfMDH,binds to dimeric V190W PfMDH
same,Ki (substrate inhibition constant of malate),"PfMDH [4]; in the presence of 63 μM compound, control 12.5 ± 4.2",63000 ± 31800 µM
same,Ki (substrate inhibition constant of malate),PfMDH [4]; in the presence of 125 μM compound,72900 ± 41900 µM
O=C1NCc2c1c1c3ccccc3[nH]c1c1[nH]c3ccccc3c21 [staurosporine aglycone],IC50,MDH,8 µM
same,decrease in cell viability,[5],80%
